The target of experiment [1] is T1, Estrogen receptor (Homo sapiens, UniProt P03372).
T1 sequence (P03372 whole entry): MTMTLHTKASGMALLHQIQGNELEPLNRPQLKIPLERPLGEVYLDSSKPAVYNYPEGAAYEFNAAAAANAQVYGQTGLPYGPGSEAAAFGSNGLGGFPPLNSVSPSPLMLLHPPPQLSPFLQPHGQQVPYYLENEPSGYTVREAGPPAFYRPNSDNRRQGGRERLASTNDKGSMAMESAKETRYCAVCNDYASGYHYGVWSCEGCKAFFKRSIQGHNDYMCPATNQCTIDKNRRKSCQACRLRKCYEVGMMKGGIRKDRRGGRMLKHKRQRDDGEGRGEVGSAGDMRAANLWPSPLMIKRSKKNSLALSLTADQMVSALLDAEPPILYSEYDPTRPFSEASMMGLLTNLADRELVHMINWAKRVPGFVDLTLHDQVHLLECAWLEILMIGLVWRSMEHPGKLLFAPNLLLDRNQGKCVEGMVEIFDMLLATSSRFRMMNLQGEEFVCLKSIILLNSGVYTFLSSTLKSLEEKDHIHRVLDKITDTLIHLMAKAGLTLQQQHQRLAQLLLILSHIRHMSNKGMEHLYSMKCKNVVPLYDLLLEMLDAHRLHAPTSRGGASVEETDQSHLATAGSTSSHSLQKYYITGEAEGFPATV
Description: Binding affinity for Human Estrogen receptor-alpha

The target in experiment [2] is Estrogen receptor beta (Homo sapiens, UniProt Q92731).
Chain of Estrogen receptor beta (Homo sapiens, UniProt Q92731) (Q92731 whole entry): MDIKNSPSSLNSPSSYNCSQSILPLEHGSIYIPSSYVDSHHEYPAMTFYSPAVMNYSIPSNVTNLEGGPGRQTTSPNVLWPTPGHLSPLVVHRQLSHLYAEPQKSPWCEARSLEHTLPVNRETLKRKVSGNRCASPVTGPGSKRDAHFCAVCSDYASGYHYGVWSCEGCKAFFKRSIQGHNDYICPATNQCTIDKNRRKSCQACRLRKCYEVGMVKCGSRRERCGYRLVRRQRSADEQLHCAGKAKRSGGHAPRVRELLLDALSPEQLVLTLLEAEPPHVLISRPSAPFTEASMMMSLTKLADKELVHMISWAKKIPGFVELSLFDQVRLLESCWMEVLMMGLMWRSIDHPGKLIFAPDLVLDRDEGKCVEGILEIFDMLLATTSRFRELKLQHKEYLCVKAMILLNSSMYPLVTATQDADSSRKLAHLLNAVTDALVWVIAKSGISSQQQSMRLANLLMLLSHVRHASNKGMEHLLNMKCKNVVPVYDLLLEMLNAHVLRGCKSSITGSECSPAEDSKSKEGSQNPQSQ
Description: Binding affinity for Human Estrogen receptor-beta
Experiment [3] addresses T2, Estrogen receptor (Rattus norvegicus, UniProt P06211).
T2 sequence (P06211 whole entry): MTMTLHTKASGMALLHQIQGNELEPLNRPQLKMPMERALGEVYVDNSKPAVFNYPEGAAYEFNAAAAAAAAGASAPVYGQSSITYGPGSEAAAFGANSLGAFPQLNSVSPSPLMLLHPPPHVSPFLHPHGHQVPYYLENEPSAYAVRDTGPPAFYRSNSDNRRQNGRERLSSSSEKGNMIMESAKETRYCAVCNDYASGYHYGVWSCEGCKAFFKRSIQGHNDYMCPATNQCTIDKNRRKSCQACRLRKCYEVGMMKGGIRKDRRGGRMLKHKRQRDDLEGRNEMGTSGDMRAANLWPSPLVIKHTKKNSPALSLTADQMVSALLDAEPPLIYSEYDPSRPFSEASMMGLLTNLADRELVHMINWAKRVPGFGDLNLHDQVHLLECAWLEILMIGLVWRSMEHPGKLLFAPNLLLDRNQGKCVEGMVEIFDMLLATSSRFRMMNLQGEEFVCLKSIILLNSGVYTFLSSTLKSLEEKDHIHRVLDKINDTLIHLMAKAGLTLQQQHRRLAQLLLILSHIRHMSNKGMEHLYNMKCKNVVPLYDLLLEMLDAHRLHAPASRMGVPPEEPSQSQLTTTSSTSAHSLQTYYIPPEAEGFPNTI
As to the kind of experiment: Binding affinity for Rat Estrogen receptor-alpha.

Experiment [4] concerns the target Estrogen receptor beta (Rattus norvegicus, UniProt Q62986). As to the kind of experiment: Binding affinity foor Rat Estrogen receptor-beta.

Chain of Estrogen receptor beta (Rattus norvegicus, UniProt Q62986) (Q62986 whole entry): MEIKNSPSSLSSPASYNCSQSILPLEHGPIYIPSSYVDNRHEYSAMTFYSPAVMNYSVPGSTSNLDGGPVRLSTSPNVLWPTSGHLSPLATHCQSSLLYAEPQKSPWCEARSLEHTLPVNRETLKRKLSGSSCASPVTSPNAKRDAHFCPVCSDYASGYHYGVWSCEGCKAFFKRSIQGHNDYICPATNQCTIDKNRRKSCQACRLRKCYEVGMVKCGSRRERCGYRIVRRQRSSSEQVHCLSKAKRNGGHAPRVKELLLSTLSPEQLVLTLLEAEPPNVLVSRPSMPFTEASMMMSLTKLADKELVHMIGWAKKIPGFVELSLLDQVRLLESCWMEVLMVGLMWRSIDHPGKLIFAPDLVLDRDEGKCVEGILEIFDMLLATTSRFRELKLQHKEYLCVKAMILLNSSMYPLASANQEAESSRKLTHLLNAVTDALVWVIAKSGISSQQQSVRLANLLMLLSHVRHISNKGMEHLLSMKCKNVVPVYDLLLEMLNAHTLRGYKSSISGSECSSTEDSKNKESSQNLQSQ

In general, IC50 refers to the concentration needed to halve the response being measured. Read a high IC50 as weaker potency. For `Oc1cccc(C2=Cc3ccc(O)cc3C23Cc2ccccc2C3)c1`, the IC50 was 0.031 µM on Estrogen receptor [1], 0.012 µM against Estrogen receptor beta [2], 0.016 µM at Estrogen receptor [3] and 0.015 µM at Estrogen receptor beta [4].

`Oc1ccc2c(c1)C=C(c1ccccc1)C21Cc2ccccc2C1`: the IC50 against Estrogen receptor [1] stood at 0.024 µM; against Estrogen receptor beta [2] it was 0.021 µM.

Consider `CC1=C(c2ccc(O)cc2)C2(Cc3ccccc3C2)c2ccc(O)cc21`, for which the IC50 stood at 0.019 µM against Estrogen receptor [1], 0.0059 µM on Estrogen receptor beta [2], 0.0022 µM on Estrogen receptor [3] and 0.0012 µM at Estrogen receptor beta [4].

`Oc1cccc(C2=Cc3cc(O)ccc3C23Cc2ccccc2C3)c1`: the IC50 on Estrogen receptor [1] was 0.028 µM; at Estrogen receptor beta [2] it was 0.023 µM; on Estrogen receptor [3], 0.034 µM; on Estrogen receptor beta [4], 0.029 µM.

For the compound `Oc1ccc(C2=Cc3cc(O)ccc3C23Cc2ccc(OCCN4CCCCC4)cc2C3)cc1` (centres undefined), the IC50 worked out at 0.001 µM on Estrogen receptor [1], 0.0019 µM against Estrogen receptor beta [2], 0.0017 µM on Estrogen receptor [3] and 0.0027 µM at Estrogen receptor beta [4].

With `Oc1ccc(C2=Cc3cc(O)ccc3C23Cc2ccccc2C3)cc1`, the results for the IC50 at Estrogen receptor [1], against Estrogen receptor beta [2] and at Estrogen receptor beta [4] were 0.0043 µM, 0.0021 µM and 0.0011 µM, respectively.

`C1=C(c2ccccc2)C2(Cc3ccccc3C2)c2ccccc21`: the IC50 at Estrogen receptor [1], at Estrogen receptor beta [2], on Estrogen receptor [3] and at Estrogen receptor beta [4] was greater than 10 µM throughout.

Regarding `Oc1ccc2c(c1)CC1(C2)C(c2ccccc2)=Cc2ccccc21` (centres undefined), the IC50 against Estrogen receptor [1] came out at 0.058 µM; at Estrogen receptor beta [2], 0.429 µM; at Estrogen receptor [3] it was 0.114 µM; at Estrogen receptor beta [4], 1.07 µM.

Values taken from ChEMBL document CHEMBL1136557, “2-Phenylspiroindenes: a novel class of selective estrogen receptor modulators (SERMs)” (Bioorg Med Chem Lett, 2003).
